Source: patent US10618916B2, “Heterocyclic compounds as immunomodulators” (Incyte Corporation, priority 2018, dated 2020)

Columns and labels:
[1] = test system: U2OS/PD-L1 cells and Jurkat-PD-1-SHP cells; assay: Src homology region 2 domain-containing phosphatase (SHP) assay; assay type: cell-based; settings: Homo sapiens, U2OS
Experimental: Example B. Src Homology Region 2 Domain-Containing Phosphatase (SHP) Assay
U2OS/PD-L1 cells (DiscoveRx Corporation) were maintained in McCoy's 5A medium with addition of 10% FBS, 0.25 μg/ml Puromycin. After removing the culture media, the cell medium was replaced with assay medium (RPMI1640 medium with 1% FBS). The U2OS/PD-L1 cells were then added in 384-well black clear bottom assay plate (CELLCOAT® Tissue Culture Plates, Greiner Bio-One) at 5000 cells per well in 20 μL assay medium. Test compounds were prepared by serial dilution in DMSO and 125 nL compound were first transferred to the 384 REMP plate well (Thermofisher) by ECHO liquid handler (Labcyte) followed with addition of 27.5 μL assay medium. 5 μL/well compounds in the assay medium were transferred to the cell plate with 0.05% DMSO in the final assay at […]. Jurkat-PD-1-SHP cells (DiscoveRx Corporation) were cultured in RPMI1640 medium supplemented with 10% FBS, 250 μg/ml Hygromycin B, 500 μg/ml G418. After the replacement of culture media with assay medium, 5,000 Jurkat-PD-1-SHP cells in 20 μL were dispensed into each well. The assay plate was incubated at 37° C., 5% CO2 for 2 hours before 2.5 μL PathHunter reagent 1 (DiscoveRx Corporation) were added to each well. The assay plate was shaken for 1 min at 350 rpm in the dark followed with addition of 10 μL PathHunter reagent 2 (DiscoveRx Corporation). Chemiluminescent signal was recorded with TopCount reader (Perkin Elmer) after incubation at room temperature for 1 hour. Wells with DMSO were served as the positive controls and wells containing no cells were used as negative controls. IC50 determination was performed by fitting the curve of percentage of control activity versus the log of the compound concentration using the GraphPad Prism 6.0 software.

[2] = test system: PD-L1 aAPC/CHO-K1 cells and Jurkat-PD-1-NFAT effector cells; assay: Nuclear factor of activated T-cells (NFAT) assay; assay type: cell-based; settings: Cricetulus griseus, CHO-K1
Experimental: Example C. Nuclear Factor of Activated T-Cells (NFAT) Assay
PD-L1 aAPC/CHO-K1 cells (Promega) were maintained in F-12 medium with addition of 10% FBS, 200 μg/ml Hygromycin B, 250 μg/ml Geneticin (G418). Jurkat-PD-1-NFAT effector cells (Promega) were cultured in RPMI 1640 medium supplemented with 10% FBS, 100 μg/ml Hygromycin B, 500 μg/ml G418. The culture media of PD-L1 aAPC/CHO-K1 cells were first replaced with assay medium (RPMI1640 medium with 1% FBS). The PD-L1 aAPC/CHO-K1 cells were then added in a white 384-well white clear bottom assay plate (CELLCOAT® Tissue Culture Plates, Greiner Bio-One) at 8000 per well in 10 μL assay medium. Test compounds were prepared by serial dilution in DMSO and 0.8 μL test compounds in DMSO were first transferred to the 384 REMP plate well (Thermofisher) by PlateMate Plus (Thermofisher) followed with addition of 50 μL plating medium. 5 μL compounds in the assay medium were transferred to the cells with 0.4% DMSO in the final assay at 2 μM. After removing the culture media, 10,000 Jurkat-PD-1-NFAT effector cells in 5 μL assay medium was dispensed into each well. The assay plate was incubated at 37° C., 5% CO2 for 24 hours. After the assay plate was equilibrated to room temp for 15 minutes, 20 µL/well of Bio-Glo™ reagent (Promega) were added. After 8 minutes incubation at room temperature, luminescence was read at with Pherastar microplate reader (BMG Labtech). The fold of induction (FOI) was calculated based on the ratio of luminescence normalized to the DMSO wells within each assay plate. The maximum percentage of induction was reported based on the ratio between the highest FOI of each compound and the maximum FOI of control compound within each assay plate. Wells with DMSO were served as the negative controls and wells containing control compound with the highest FOI were used as positive controls. EC50 determination was performed by fitting the curve of percent control activity versus the log of the compound concentration using the GraphPad Prism 6.0 software.

[3] = target: PD-1/PD-L1 protein/protein interaction (recombinant human PD-L1 and human PD-1) (Homo sapiens (Human), UniProt Q9NZQ7); assay: Homogeneous Time-Resolved Fluorescence (HTRF) PD-1/PD-L1 binding assay
Chain of PD-1/PD-L1 protein/protein interaction (recombinant human PD-L1 and human PD-1) (Q9NZQ7 19-238): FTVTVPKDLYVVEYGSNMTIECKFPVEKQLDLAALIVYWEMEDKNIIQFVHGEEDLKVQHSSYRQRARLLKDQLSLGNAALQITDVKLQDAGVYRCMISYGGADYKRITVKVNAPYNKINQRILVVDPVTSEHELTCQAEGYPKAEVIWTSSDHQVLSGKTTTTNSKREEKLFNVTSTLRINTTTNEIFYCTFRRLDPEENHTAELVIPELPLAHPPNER
Experimental: Example A. Homogeneous Time-Resolved Fluorescence (HTRF) PD-1/PD-L1 Binding Assay
The assays were conducted in a standard black 384-well polystyrene plate with a final volume of 20 μL. Inhibitors were first serially diluted in DMSO and then added to the plate wells before the addition of other reaction components. The final concentration of DMSO in the assay was 1%. The assays were carried out at 25° C. in the PBS buffer (pH 7.4) with 0.05% Tween-20 and 0.1% BSA. Recombinant human PD-L1 protein (19-238) with a His-tag at the C-terminus was purchased from AcroBiosystems (PD1-H5229). Recombinant human PD-1 protein (25-167) with Fc tag at the C-terminus was also purchased from AcroBiosystems (PD1-H5257). PD-L1 and PD-1 proteins were diluted in the assay buffer and 10 μL was added to the plate well. Plates were centrifuged and proteins were preincubated with inhibitors for 40 minutes. The incubation was followed by the addition of 10 μL of HTRF detection buffer supplemented with Europium cryptate-labeled anti-human IgG (PerkinElmer-AD0212) specific for Fc and anti-His antibody conjugated to SureLight®-Allophycocyanin (APC, PerkinElmer-AD0059H). After centrifugation, the plate was incubated at 25° C. for 60 min. before reading on a PHERAstar FS plate reader (665 nm/620 nm ratio). Final concentrations in the assay were—3 nM PD1, 10 nM PD-L1, 1 nM europium anti-human IgG and 20 nM anti-His-Allophycocyanin. IC50 determination was performed by fitting the curve of percent control activity versus the log of the inhibitor concentration using the GraphPad Prism 5.0 software.

SMILES | IC50 [1] [nM] | IC50 [3] [nM] | EC50 [2] [nM]
CN1CCc2c(nc(C(=O)Nc3cccc(-c4cccc(NC(=O)c5nc6c(n5C)CCN(CCC57CCC(C(=O)O)(CC5)C7)C6)c4Cl)c3C#N)n2C)C1 [Example 48, 4-(2-(2-((2-chloro-2′-cyano-3′-(1,5-dimethyl-4,5,6,7-tetrahydro-1H-imidazo[4,5-c]pyridine-2-carboxamido)-[1,1′-biphenyl]-3-yl)carbamoyl)-1-methyl-1,4,6,7-tetrahydro-5H-imidazo[4,5-c]pyridin-5-yl)ethyl)bicyclo[2.2.1]heptane-1-carboxylic acid] | ≤ 10 | ≤ 5 | 10 to 100
Cc1c(NC(=O)c2nc3c(n2C)CCN(CCO)C3)cccc1-c1cccc(NC(=O)c2nc3c(n2C)CCN(CCC24CCC(C(=O)O)(CC2)C4)C3)c1C [Example 59, 4-(2-(2-((3′-(5-(2-hydroxyethyl)-1-methyl-4,5,6,7-tetrahydro-1H-imidazo[4,5-c]pyridine-2-carboxamido)-2,2′-dimethyl-[1,1′-biphenyl]-3-yl)carbamoyl)-1-methyl-1,4,6,7-tetrahydro-5H-imidazo[4,5-c]pyridin-5-yl)ethyl)bicyclo[2.2.1]heptane-1-carboxylic acid] | ≤ 10 | ≤ 5 | 100 to 500
CCN1CCc2c(nc(C(=O)Nc3cccc(-c4cccc(NC(=O)c5nc6c(n5C)CCN(CCC57CCC(C(=O)O)(CC5)C7)C6)c4Cl)c3Cl)n2C)C1 [Example 4, 4-(2-(2-((2,2′-dichloro-3′-(5-ethyl-1-methyl-4,5,6,7-tetrahydro-1H-imidazo[4,5-c]pyridine-2-carboxamido)-[1,1′-biphenyl]-3-yl)carbamoyl)-1-methyl-1,4,6,7-tetrahydro-5H-imidazo[4,5-c]pyridin-5-yl)ethyl)bicyclo[2.2.1]heptane-1-carboxylic acid] | ≤ 10 | ≤ 5 | 10 to 100
CN1CCc2c(nc(C(=O)Nc3cccc(-c4cccc(NC(=O)c5nc6c(n5C)CCN(CCC57CCC(C(=O)O)(CC5)C7)C6)c4Cl)c3Cl)n2C)C1 [Example 3, 4-(2-(2-((2,2′-dichloro-3′-(1,5-dimethyl-4,5,6,7-tetrahydro-1H-imidazo[4,5-c]pyridine-2-carboxamido)-[1,1′-biphenyl]-3-yl)carbamoyl)-1-methyl-1,4,6,7-tetrahydro-5H-imidazo[4,5-c]pyridin-5-yl)ethyl)bicyclo[2.2.1]heptane-1-carboxylic acid] | ≤ 10 | ≤ 5 | 10 to 100
Cn1c(C(=O)Nc2cccc(-c3cccc(NC(=O)c4nc5c(n4C)CCN(CC46CCC(C(=O)O)(CC4)C6)C5)c3C#N)c2Cl)nc2c1CCN(CCC13CCC(C(=O)O)(CC1)C3)C2 [Example 52, 4-((2-((3′-(5-(2-(4-carboxybicyclo[2.2.1]heptan-1-yl)ethyl)-1-methyl-4,5,6,7-tetrahydro-1H-imidazo[4,5-c]pyridine-2-carboxamido)-2′-chloro-2-cyano-[1,1′-biphenyl]-3-yl)carbamoyl)-1-methyl-1,4,6,7-tetrahydro-5H-imidazo[4,5-c]pyridin-5-yl)methyl)bicyclo[2.2.1]heptane-1-carboxylic acid] | 10 to 100 | ≤ 5 | 100 to 500

Second part, led by results:

IC50 [1] [nM] | IC50 [3] [nM] | SMILES | EC50 [2] [nM]
≤ 10 | ≤ 5 | Cn1c(C(=O)Nc2cccc(-c3cccc(NC(=O)c4nc5c(n4C)CCNC5)c3C#N)c2Cl)nc2c1CCN(CCC13CCC(C(=O)O)(CC1)C3)C2 [Example 46, 4-(2-(2-((2-chloro-2′-cyano-3′-(1-methyl-4,5,6,7-tetrahydro-1H-imidazo[4,5-c]pyridine-2-carboxamido)-[1,1′-biphenyl]-3-yl)carbamoyl)-1-methyl-1,4,6,7-tetrahydro-5H-imidazo[4,5-c]pyridin-5-yl)ethyl)bicyclo[2.2.1]heptane-1-carboxylic Acid] | 10 to 100
≤ 10 | ≤ 5 | Cn1c(C(=O)Nc2cccc(-c3cccc(NC(=O)c4nc5c(n4C)CCN(C4CCC4)C5)c3Cl)c2Cl)nc2c1CCN(CCC13CCC(C(=O)O)(CC1)C3)C2 [Example 6, 4-(2-(2-((2,2′-dichloro-3′-(5-cyclobutyl-1-methyl-4,5,6,7-tetrahydro-1H-imidazo[4,5-c]pyridine-2-carboxamido)-[1,1′-biphenyl]-3-yl)carbamoyl)-1-methyl-1,4,6,7-tetrahydro-5H-imidazo[4,5-c]pyridin-5-yl)ethyl)bicyclo[2.2.1]heptane-1-carboxylic acid] | 10 to 100
≤ 10 | ≤ 5 | Cc1c(NC(=O)c2nc3c(n2C)CCN(C)C3)cccc1-c1cccc(NC(=O)c2nc3c(n2C)CCN(CCC24CCC(C(=O)O)(CC2)C4)C3)c1Cl [Example 29, 4-(2-(2-((2-chloro-3′-(1,5-dimethyl-4,5,6,7-tetrahydro-1H-imidazo[4,5-c]pyridine-2-carboxamido)-2′-methyl-[1,1′-biphenyl]-3-yl)carbamoyl)-1-methyl-1,4,6,7-tetrahydro-5H-imidazo[4,5-c]pyridin-5-yl)ethyl)bicyclo[2.2.1]heptane-1-carboxylic acid] | 10 to 100
